Assay: Human HepG2 cell viability assay in 384 well format
Format: toxicity, cell-based
Parameters: dose 125 nL, time 70.5 hour; concentration not given beside the values
Conditions: HepG2 cells, read-out: Inhibition

SMILES	cytotoxicity at 70.5 h [%]
CN(C)CCN1CCO[C@H]2CN(Cc3ccccn3)C[C@H]21	-6
O=C(Nc1cccc(CN2CCC(CO)CC2)c1)c1cc(Cl)c[nH]1	32.7
CC(C)CC(NC(=O)CSCC(N)=O)c1cccs1 (stereo unspecified)	-5.44
Cc1cc(=O)n(CC(=O)Nc2ccc(Cl)cc2)nc1C	-2.9
CC(C)C(=O)NCCNC(=O)CCOc1cccc(F)c1	-11.3
Cc1ccc(CNc2ccc(N3CCC(CO)CC3)cn2)o1	-2.34
OC1=C2C(=Nc3n[nH]c(O)c3C2c2ccccc2Cl)CCC1 (stereo unspecified)	9.03
NC(=O)CSc1ccccc1NC(=O)C1CCCCC1	28.8
COc1ncccc1CNC(=O)c1c[nH]c(=O)c(Br)c1	-4.91
COc1ccc(C(=O)C2CCCN(c3cc(C#N)ccn3)C2)cc1OC (stereo unspecified)	-5.09
CN(C)CC1CN(Cc2coc(-c3ccccc3Cl)n2)CCO1 (stereo unspecified)	7.1
COC(CNC(=O)NCc1c(C)cc(C)[nH]c1=O)c1ccccc1 (stereo unspecified)	-12.2
CCn1nc2ccc(S(=O)(=O)N3CCSCC3)cn2c1=O	-9.47
Cc1cnn(C2CN(CC(=O)NCCc3c[nH]c4ccccc34)C2)c1	-9.92
O=C(c1ccc(-n2cnnc2)nc1)N1CCCC(O)(CO)CC1 (stereo unspecified)	-22.7
CN(C)CC1(O)CCCN(C(=O)CCc2nc3cccnc3n2C)C1 (stereo unspecified)	-9.56
CC(C)(C)c1ncc2c(n1)CN(C(=O)c1ccc(-c3nc[nH]n3)cc1)C2	-1.51
Cc1ccc(N2CCCN(C(=O)CCCn3ccnc3C)CC2)nn1	-0.226
CCn1nnc(NCc2ccc(-c3ccc(Br)cc3)o2)n1	-7.12

SMILES	cytotoxicity at 70.5 h [%]
O=C(CCc1nc2cccnc2[nH]1)Nc1cccnc1	-16.2
CN(Cc1csc(-c2cccs2)n1)C(=O)CCn1ccccc1=O	-17.2
CCNC(=O)Cc1c(C)nc2c(c1C)c(=O)[nH]n2C	-5.26
CC(C)CN1CC[C@@H]2[C@H](CC1)N(C(=O)c1ccccc1)CCS2(=O)=O	-1.5
OCCCNC1CCc2cc3c(cc21)OCCO3 (stereo unspecified)	-4.1
Cn1nc(-c2ccccc2)c(Cl)c1C(=O)O	-25.8
Cc1nn(C)c(C)c1-c1ccc(=O)n(C(C)C(=O)NC2CCCCC2)n1 (stereo unspecified)	-17.2
CCc1ncc(CN2CCCC3(CCC(=O)N(CCC(C)C)C3)C2)cn1 (stereo unspecified)	1.46
O=C(NCCn1ccnc1)c1csc2c1CCCC2	-10.8
NCc1n[nH]c(-c2cccc(F)c2)n1	32.2
Cc1ccc(N2C[C@@H]3CN(Cc4ccoc4)CCO[C@@H]3C2)nn1	10.2
CC(C)(C)CN1CC(O)CN(C(=O)c2cccc(C(F)(F)F)c2)CC1=O (stereo unspecified)	-7.28
CC(C)c1nc(C2CCCN(C(=O)Cc3cccnc3)C2)no1 (stereo unspecified)	-16.6
COCCN1CCN(CC(O)c2ccc(C(F)(F)F)cc2)CC1 (stereo unspecified)	-7.3
CCOCCN1CCN(CCOCC(F)(F)F)CC1	-8.54
Cc1nc(C)n(CC2CCCN2CCOc2ccccc2F)n1 (stereo unspecified)	-3.47
O=C(NCc1ccccc1Cn1cncn1)C1CC1	-11.8
Cc1cnc(-c2nc(C3CCCN(Cc4cccs4)C3)no2)cn1 (stereo unspecified)	23.7
O=C1CCSCC(C(=O)N2CCN(C3CCCCC3)CC2)N1 (stereo unspecified)	0.692

SMILES	cytotoxicity at 70.5 h [%]
CNc1cncc(C2CCCN2S(=O)(=O)c2ccc(F)cc2)n1 (stereo unspecified)	-2.18
Cn1cc(C2CC(=O)NC23CCN(C(=O)Cc2ccccn2)CC3)cn1 (stereo unspecified)	-5.18
COc1ccc(F)cc1-c1ccccc1CC1CNCCNC1=O (stereo unspecified)	2.28
CO[C@H]1CN(C(C)C)C[C@@H]1NC(=O)c1cc(-c2ccccc2O)n[nH]1	-1.03
CNC(=O)C1Cn2ccnc2C2(CCN(Cc3c(C)noc3C)CC2)O1 (stereo unspecified)	21.5
O=C1N(Cc2ccc(F)cc2)CCCC12CCN(C1CCSCC1)C2 (stereo unspecified)	-6
c1ccc(-c2ccc(CN3CCOC(Cn4cncn4)C3)cc2)cc1 (stereo unspecified)	22
CCCc1nnc(N2CCN(c3ccccc3OCC)CC2)o1	-4.12
Cn1cc(CN2CC[C@@H]3[C@@H](CO[C@H]3CNC(=O)c3ccco3)C2)cn1	-3.28
COC(=O)CC(c1ccccc1)c1oc(C)cc(=O)c1O (stereo unspecified)	6.19
Cc1ccc(C(=O)N2CCCCC2CN(C)C)cc1 (stereo unspecified)	4.31
CC(=O)N1C[C@H]2CNC[C@@]2(C(=O)NCCNc2ccncc2C)C1	-0.521
C[C@@H]1CN2C[C@H](O)CC2CN1Cc1ccc2nccnc2c1 (stereo partly specified)	35.6
N#Cc1ccc2c(c1)CN(C(=O)C1CC=CC1)C2c1cnco1 (stereo unspecified)	-6.37
c1ccc(-c2noc(C3CCN(CCCn4cncn4)CC3)n2)cc1	0.0875
Cc1cnn(CCNCc2csc(-c3ncccn3)n2)c1	18.5
Cc1nc2cc(=O)[nH]n2c(C)c1CC(=O)Nc1cnn(C)c1	0.718
CC(=O)NC1CCCN(C(=O)CNc2cccc(C)c2Cl)C1 (stereo unspecified)	21.2
